From patent US10221125B2, “Solid forms” (Oryzon Genomics, S.A., priority 2015, dated 2019)
Where a name gives a salt, the structure may show the parent alone.

Experiments:
Type in all cases: physicochemical
[1] = Stability of the di-hydrochloric acid salt (decomposition, release of HCl)
[2] = Long-term incubation/storage at elevated temperature or elevated humidity (phase change)
[3] = Hygroscopicity (mass increase when relative humidity is raised from 0% rH to 90% rH); conditions: increase in mass
Text: The term “hygroscopicity” describes the ability of a solid material to adsorb moisture. The hygroscopicity of a given API is characterized [European Pharmacopoeia—6th Edition (2008), Chapter 5.11) by the increase in mass when the relative humidity is raised from 0% rH to 90% rH: • non-hygroscopic: weight increase Δm<0.2%; • slightly hygroscopic: weight increase 0.2%≤Δm<2.0%; • hygroscopic: weight increase 2.0%≤Δm<15.0%; • very hygroscopic: weight increase Δm≥15.0%; • a deliquescent: sufficient water is adsorbed to form a liquid.

[4] = Long term equilibration slurry experiments (polymorph stability)
[5] = Thermal behaviour on heating/cooling (temperature controlled XRPD)
Description: For temperature controlled XRPD measurements, the sample was placed without further processing (e.g. grinding or sieving) in a quartz glass capillary of 1 mm diameter and sealed. Measurements were performed with a STOE high-/low-temperature extension (temperature range −50° C. to 300° C.) with am NiCr/Ni-thermal element at a ramp rate of 5° C. per minute, temperature steps every 5° C., 30 minutes measuring time per step, […]

N[C@H]1CC[C@H](N[C@@H]2C[C@H]2c2ccccc2)CC1 [(trans)-N1-((1R,2S)-2-phenylcyclopropyl)cyclohexane-1,4-diamine di-hydrochloride]
stability of di-hydrochloric acid salt (decomposition to mono-hydrochloride, release of corrosive hydrochloric acid) [1]: does not decompose and release corrosive hydrochloric acid

N[C@H]1CC[C@H](N[C@@H]2C[C@H]2c2ccccc2)CC1 [Form A, (trans)-N1-((1R,2S)-2-phenylcyclopropyl)cyclohexane-1,4-diamine di-hydrochloride]
phase change to Form B on long term storage ([2]; increased humidity, e.g. 100% rH): does not induce a phase change to Form B
hygroscopicity [3]: slightly hygroscopic (slightly hygroscopic: weight increase 0.2%≤Δm<2.0%)

N[C@H]1CC[C@H](N[C@@H]2C[C@H]2c2ccccc2)CC1 [Form B, (trans)-N1-((1R,2S)-2-phenylcyclopropyl)cyclohexane-1,4-diamine di-hydrochloride]
stability as compared to Form A [2]: substantially increased
phase change during long-term incubation ([2]; elevated temperature or elevated humidity, even at 100% rH): no phase-change is observed
polymorph stability ranking [4]: most stable polymorph
formation of Form C upon heating ([5]; heating of Form B): cannot be prepared upon heating of Form B
decomposition temperature ([5]; on heating, di-hydrochloride): above 210 °C
hygroscopicity [3]: slightly hygroscopic (slightly hygroscopic: weight increase 0.2%≤Δm<2.0%)

N[C@H]1CC[C@H](N[C@@H]2C[C@H]2c2ccccc2)CC1 [Form C, (trans)-N1-((1R,2S)-2-phenylcyclopropyl)cyclohexane-1,4-diamine di-hydrochloride]
polymorph stability description [5]: unstable high-temperature polymorph
